Source: patent publication US10834946B2, “Flavor composition and edible compositions containing same” (Mars, Incorporated, priority 2013, dated 2020)
Square brackets hold non-standard residues; d marks the D form. Ends that are not written are not given here. pGlu = O=C1CC[C@@H](C(=O)O)N1

Key:
[1] = tested on: panelists (salt perception); test: Increased Salt Perception Protocol (descriptive sensory panel); format: in vivo, human; conditions: for Mean salt perception in mouth: scale anchored to 0.35% salt reference = 5.0; for Mean salt perception after expectoration: re-tasting of salt reference (0.35% salt, intensity 5.0)
Protocol: Descriptive Profiles (Flavor and Chemical Feeling Factors) of five use levels of a pGlu-Val-Leu flavor composition were determined. The five use levels were as follows:
Data was collected for the flavor and chemical feeling factors of the product in mouth for each of the five use levels according to the following protocol:
1. Each panelist tasted a salt reference (0.35% salt solution) with a reference salt intensity of 5.0 which provided a baseline for each panelist's Sensory Spectrum for salt intensity.
2. Each panelist tasted a test sample (0.1 ppb, 0.5 ppb, 1.0 ppb, 10.0 ppb or 40.0 ppb all in 0.2% NaCl solution). Only one sample was tasted per session.
3. Each panelist re-tasted the salt reference (5.0 intensity) and rated it for salt intensity as well as any other basic taste, chemical feeling factor, or aromatic perceived. Thus, any increased salt perception as a result of the test sample would be determined, as well as any other perceptions present. Return to Baseline Protocol
The test samples were formulated as follows: […]

[2] = tested on: panelists (salt perception); test: Return to Baseline Protocol (saltiness aftertaste, sensory panel); format: in vivo, human; conditions: salt reference re-tasted at 1 minute intervals until intensity 5.0
Protocol: After evaluating the sample for salt and other perceptions (step 3 above), each panelist re-tasted the salt reference (5.0 intensity) at 1 minute intervals until their perception of the saltiness intensity of the reference returned to 5.0. Each panelist recorded salt intensity at each interval and took qualitative notes on other perceptions seen in aftertaste.

Substance: [pGlu]-Val-Leu
- Mean salt perception in mouth ([1]; 0.1 ppb peptide in 0.2% NaCl solution): 2.3
- Mean salt perception after expectoration ([1]; 0.1 ppb sample): 6.8
- perception of salt in-mouth as concentration increased ([1]; 0.1 to 40.0 ppb in 0.2% NaCl solution): did not significantly increase
- Mean salt perception in mouth ([1]; 0.5 ppb peptide in 0.2% NaCl solution): 2.8
- Mean salt perception after expectoration ([1]; 0.5 ppb sample): 6.4
- Mean salt perception in mouth ([1]; 1.0 ppb peptide in 0.2% NaCl solution): 2.3
- Mean salt perception after expectoration ([1]; 1.0 ppb sample): 7.5
- Mean salt perception in mouth ([1]; 10.0 ppb peptide in 0.2% NaCl solution): 3.1
- Mean salt perception after expectoration ([1]; 10.0 ppb sample): 8.2
- Mean salt perception in mouth ([1]; 40.0 ppb peptide in 0.2% NaCl solution): 2.8
- Mean salt perception after expectoration ([1]; 40.0 ppb sample): 8.3
- Salt perception after expectoration ([1]; all samples (0.1 to 40.0 ppb), versus reference intensity 5.0): increased
- Mean time needed to return to baseline ([2]; 0.1 ppb sample): 7.6 min
- Mean time needed to return to baseline ([2]; 0.5 ppb sample): 9.5 min
- Mean time needed to return to baseline ([2]; 1.0 ppb sample): 8.7 min
- Mean time needed to return to baseline ([2]; 10.0 ppb sample): 8.6 min
